The supplement of paper PMC12317010
Where a name gives a salt, the structure may show the parent alone.

Assay: collision cross section in nitrogen (drift tube, single-field); higher = larger gas-phase ion size
[1] = ion type: [M+H], ion source: APCI, ion mode: Positive
[2] = ion type: [M+H], ion source: ESI, ion mode: Positive
[3] = ion type: [M+Na], ion source: ESI, ion mode: Positive
[4] = ion type: [M-H], ion source: ESI, ion mode: Negative
[5] = ion type: [M+], ion source: APCI, ion mode: Positive
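Also: chemical standards at 10 µM analysed by drift tube IMS-QTOF MS in about 3.95 torr nitrogen, mean of duplicate injections differing ≤1%, mass error below 10 ppm.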

Row | collision cross section in nitrogen [1] [Å²] | collision cross section in nitrogen [2] [Å²] | collision cross section in nitrogen [4] [Å²] | SMILES | collision cross section in nitrogen [3] [Å²] | further results
1 | 152.2 | 153.7 | 154.6 | C#CC(C)N(C)C(=O)Nc1ccc(Cl)cc1 (stereo not given) [Buturon] | 166.1 | 
2 |  |  | 146.8 | CCCCOC(=O)C(C)CC (stereo not given) [Butyl 2-methylbutyrate] |  | 
3 |  |  | 177.6 | CCCCCCCCCCCCCC(=O)OCCCC [Butyl myristate] |  | 
4 |  |  | 149.4 | CCCCOC(=O)c1ccc(O)cc1 [Butylparaben] |  | 
5 |  | 243 |  | CCN(CC)c1ccc(C(=C2C=CC(=[N+](CC)CC)C=C2)c2ccc(S(=O)(=O)O)cc2S(=O)(=O)[O-])cc1 [C.I. Acid Blue 1, sodium salt] | 255.4 | 
6 |  |  | 204.4 | O=[N+]([O-])c1ccc(Nc2ccc(Nc3ccccc3)c(S(=O)(=O)O)c2)c([N+](=O)[O-])c1 [C.I. Acid Orange 3] |  | 
7 |  |  | 182.7 | O=S(=O)(O)c1ccc(N=Nc2c(O)ccc3ccccc23)cc1 [C.I. Acid Orange 7] |  | 
8 |  |  | 187.1 | Cc1cc(S(=O)(=O)O)ccc1N=Nc1c(O)ccc2ccccc12 [C.I. Acid Orange 8, monosodium salt] |  | 
9 |  |  | 192.5 | O=S(=O)(O)c1cc(S(=O)(=O)O)c2c(N=Nc3ccccc3)c(O)ccc2c1 [C.I. Acid Orange 10] |  | 
10 |  |  | 221 | Cc1ccc(N/N=c2\c(=O)cc/c(=N/Nc3ccc(S(=O)(=O)O)cc3)c2=O)c(C)c1 [C.I. Acid Orange 24, monosodium salt] |  | 
11 |  | 219.7 | 231.2 | COc1ccc(N=Nc2cc(C)c(N=Nc3ccc(S(=O)(=O)O)cc3)cc2OC)cc1 [C.I. Acid Orange 156] |  | 
12 |  |  | 210.2 | CC(=O)Nc1cc(S(=O)(=O)O)cc2cc(S(=O)(=O)O)c(N=Nc3ccccc3)c(O)c12 [C.I. Acid Red 1] |  | 
13 |  |  | 193.7 | O=S(=O)(O)c1ccc(N=Nc2c(O)ccc3ccccc23)c2ccccc12 [C.I. Acid Red 88, monosodium salt] |  | 
14 |  | 319.9 | 317.8 | Cc1ccc(S(=O)(=O)Oc2ccc(N=Nc3ccc(-c4ccc(N=Nc5c(O)ccc6cc(S(=O)(=O)O)cc(S(=O)(=O)O)c56)c(C)c4)cc3C)cc2)cc1 [C.I. Acid Red 114] |  | 
15 |  |  | 218 | COc1ccccc1N=Nc1c(S(=O)(=O)O)cc2cc(S(=O)(=O)O)cc(NC(C)=O)c2c1O [C.I. Acid Violet 12, disodium salt] |  | 
16 |  |  | 199.2 | CC1=NN(c2ccc(S(=O)(=O)O)cc2)C(=O)C1N=Nc1ccccc1 (stereo not given) [C.I. Acid Yellow 11, sodium salt] |  | 
17 |  |  | 227.6 | CC1=NN(c2cc(Cl)c(S(=O)(=O)O)cc2Cl)C(=O)C1N=Nc1ccc(S(=O)(=O)O)cc1 (stereo not given) [C.I. Acid Yellow 17, disodium salt] |  | 
18 |  | 196.9 | 202.7 | CC1=NN(c2cc(S(=O)(=O)O)ccc2Cl)C(=O)C1/N=N/c1ccccc1 (stereo not given) [C.I. Acid Yellow 34, monosodium salt] |  | 
19 | 150.7 | 151.2 | 149.6 | Nc1ccc(N=Nc2ccccc2)c(N)c1 [C.I. Basic Orange 2] |  | 
20 | 173.3 | 174.1 | 177.9 | N=C1C=CC(=C(c2ccc(N)cc2)c2ccc(N)cc2)C=C1 [C.I. Basic Red 9 monohydrochloride] |  | collision cross section in nitrogen [5]: 173.7 Å²

The next lines start with the molecule.

Row | SMILES | collision cross section in nitrogen [1] [Å²] | collision cross section in nitrogen [2] [Å²] | collision cross section in nitrogen [4] [Å²] | collision cross section in nitrogen [3] [Å²] | further results
21 | COc1ccccc1Oc1c(NS(=O)(=O)c2ccc(C(C)(C)C)cc2)nc(-c2ncccn2)nc1OCCO [Bosentan hydrate] | 229.9 | 229.4 | 232.9 | 234.4 | 
22 | CCC(C)n1c(=O)[nH]c(C)c(Br)c1=O (stereo not given) [Bromacil] |  |  | 146.6 |  | 
23 | O=c1oc2ccccc2c(O)c1C(CC(O)c1ccc(-c2ccc(Br)cc2)cc1)c1ccccc1 (stereo not given) [Bromadiolone] |  |  | 215.1 | 239.5 | 
24 | Nc1c(S(=O)(=O)O)cc(Br)c2c1C(=O)c1ccccc1C2=O [Bromamine acid sodium salt] |  |  | 169.2 |  | 
25 | Cc1c(C2(c3cc(Br)c(O)c(Br)c3C)OS(=O)(=O)c3ccccc32)cc(Br)c(O)c1Br [Bromcresol green] |  |  | 217 |  | 
26 | CC(C)C[C@H]1C(=O)N2CCC[C@H]2[C@]2(O)O[C@](NC(=O)[C@@H]3C=C4c5cccc6[nH]c(Br)c(c56)C[C@H]4N(C)C3)(C(C)C)C(=O)N12 [Bromocriptine mesylate] | 242.9 | 247.4 | 251.7 | 248.5 | 
27 | O=S1(=O)OC(c2cc(Br)c(O)c(Br)c2)(c2cc(Br)c(O)c(Br)c2)c2ccccc21 [Bromophenol blue] |  |  | 214.2 |  | 
28 | N#Cc1cc(Br)c(O)c(Br)c1 [Bromoxynil] |  |  | 131.2 |  | 
29 | CN(C)CCC(c1ccc(Br)cc1)c1ccccn1 (stereo not given) [Brompheniramine hydrogen maleate] | 167.1 | 167.8 |  |  | 
30 | Clc1ccc(C2(Cn3cncn3)CC(Br)CO2)c(Cl)c1 (stereo not given) [Bromuconazole] | 172.7 | 172.6 |  |  | 
31 | COc1cc2c(cc1OC)[C@@]13CCN4CC5=CCO[C@H]6CC(=O)N2[C@H]1[C@H]6[C@H]5C[C@H]43 [Brucine] | 191.3 | 194.1 |  | 204.6 | 
32 | CCCC1O[C@@H]2C[C@H]3[C@@H]4CCC5=CC(=O)C=C[C@]5(C)[C@H]4[C@@H](O)C[C@]3(C)[C@]2(C(=O)CO)O1 (stereo not given in full) [Budesonide] |  |  | 204.6 | 230.4 | 
33 | COc1cc(OC)c(C(=O)CCCN2CCCC2)c(OC)c1 [Buflomedil hydrochloride] | 176 | 176.1 |  | 178.9 | 
34 | Cc1cc(-n2nc3ccc(Cl)cc3n2)c(O)c(C(C)(C)C)c1 [Bumetrizole] |  |  | 183.2 |  | 
35 | CCCCc1c(C)nc(NCC)nc1OS(=O)(=O)N(C)C [Bupirimate] | 175.8 | 175.8 | 175.9 | 181.8 | 
36 | CC(C)N1C(=O)N(c2ccccc2)CSC1=NC(C)(C)C [Buprofezin] | 173.6 | 173.9 |  | 188 | 
37 | CC(NC(C)(C)C)C(=O)c1cccc(Cl)c1 (stereo not given) [Bupropion hydrochloride] |  | 158.6 |  |  | 
38 | O=C1CC2(CCCC2)CC(=O)N1CCCCN1CCN(c2ncccn2)CC1 [Buspirone] | 199.2 | 199.2 | 202.9 | 201.6 | collision cross section in nitrogen [5]: 196.8 Å²
39 | CCCCOCN(C(=O)CCl)c1c(CC)cccc1CC [Butachlor] |  |  |  | 184.4 | 
40 | CC(C)N(Cc1ccccc1)C(=O)C(C)(C)C [Butam] | 154.6 | 154.5 |  | 163.4 | 
41 | CNC(=O)ON=C(C)C(C)S(C)(=O)=O (stereo not given) [Butoxycarboxim] |  |  |  | 149.8 | 
42 | CCCCCCOC(=O)CC(CC(=O)OCCCCCC)(OC(=O)CCC)C(=O)OCCCCCC [Butyryl-n-trihexylcitrate] |  |  |  | 245.5 | 
43 | CCCCCCCCCCCC[N+](C)(C)CC(=O)O [C12-14-Alkyldimethyl betaines] |  |  |  |  | collision cross section in nitrogen (ion source: ESI, ion mode: Positive, ion type: [M]+ (permanent cation)): 183.8 Å²
